From patent US20040235794A1, “Remedies for respiratory diseases comprising sphingosine-1-phosphate receptor controller” (priority 2001, published 2004)

Legend:
anesthetized guinea pig [1] = test: Inhibition of S1P-induced increase of airway resistance of anesthetized guinea pig in vivo; details: S1P 0.1 mg/mL inhaled; compound intravenously injected after increase of airway resistance
Method: The measurement of guinea pig airway resistance was carried out by the modified Konzett and Rossler method (Naunyn-Schmied. Arch. Exp. Path. Pharmak. 195, 71- ). Male Hartley guinea pigs (5 to 7 weeks-old, 300 to 500 g body weight in use) were anesthetized by pentobarbital (50 mg/kg intraabdominal dosage), and fixed at dorsal position. Then, trachea and jugular were cannulated. Airway was managed by a respirator (5 mL/stroke, 60 strokes/min) and air road was diverged with a T-tube and connected to broncho-spasm-transducer and airway resistance was measured. To guinea pigs, gallamine (1 mg/kg, i.v.) was administered and immobilized. S1P was vaporized and inhaled with supersonic wave type nebulizer for five minutes (Jpn. J. Pharm. 50, 445-466 (1989)). S1P (0.1 mg/mL) was inhaled to the anesthetized guinea pig, and airway resistance was measured. After a increase of strong airway resistance was recognized, compound 1 was intravenously injected.

human EDG-5 = target: T1, human EDG-5 (Homo sapiens, UniProt O95136); test: Antagonistic activity for EDG-5 (S1P-induced intracellular calcium, CHO cells); format: cell-based; details: CHO cells expressing human EDG-5, S1P 100 nM
T1 construct: expressed in transfected cells; host or cells: CHO cells
T1 sequence (O95136 whole entry): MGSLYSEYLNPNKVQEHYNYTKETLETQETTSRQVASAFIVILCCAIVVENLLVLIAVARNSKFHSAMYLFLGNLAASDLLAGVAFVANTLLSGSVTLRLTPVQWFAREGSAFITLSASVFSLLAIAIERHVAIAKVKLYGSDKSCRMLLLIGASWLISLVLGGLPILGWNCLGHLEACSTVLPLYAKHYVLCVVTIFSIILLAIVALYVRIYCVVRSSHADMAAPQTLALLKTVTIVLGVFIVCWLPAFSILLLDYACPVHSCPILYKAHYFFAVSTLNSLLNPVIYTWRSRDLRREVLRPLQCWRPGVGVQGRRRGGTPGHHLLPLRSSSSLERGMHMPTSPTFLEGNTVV
Method: Chinese hamster ovary (CHO) cells which expressed excessively human EDG-5 gene were cultured using a Ham's F12 medium (GIBCO BRL) containing 10% FBS (fetal bovine serum), penicillin/streptomycin, and blasticidin (5 μg/ml). Cultured cells were incubated in a Fura2 (5 μM) -AM solution [Ham's F12 medium containing FBS (10%), HEPES buffer (20 mM, pH7.4), and probenecid (2.5 mM)] at 37° C. for 60 minutes. Then washed once with a Hank's solution (2.5 mM) containing probenecid and immersed into the same solution. A plate was set on a fluorescent drug screening system, and measured for 30 seconds with no stimulation, a solution of a compound (dimethyl sulfoxide solution of 1 nM to 10 μM at the final concentration) to be tested was added. After lapse of 5 minutes, S1P (final concentration: 100 nM) was added, the intracellular calcium ion concentration before and after the addition was measured every 3 seconds (excitation wave length: 340 nm and 380 nm; fluorescent wave length: 500 nm). […]

[2] = system: human airway smooth muscle cells; test: Cell toxicity assessment using released LDH; format: cell-based; details: released LDH as indicator
[3] = system: isolated trachea of guinea pig; test: Constriction of isolated trachea of guinea pig (magnus tube)
Method: The trachea of euthanized male Hartley ginea pig was removed and immersed quickly in Krebs-Henseleit solution (112 mmol/L sodium chloride, 5.9 mmol/L potassium chloride, 2.0 mmol/L calcium chloride, 1.2 mmol/L magnesium chloride, 1.2 mmol/L monobasic sodium phosphate, 25.0 mmol/L sodium hydrogen carbonate NaHCO3, 11.5 mmol/L glucose, 4° C.). A removed tissue was hooked as helical sample in magnus tube (volume: 10 mL) filled with Krebs-Henseleit solution (37±1° C., [aerated with 95% O2+5% CO2]). After stabilizing for 60 minutes in tensioned condition with 1 g, contraction was measured by recorder from force displacement transducer via distortion amplifier. The contraction of control was obtained by high concentration solution of potassium chloride (sodium chloride in Krebs-Henseleit solution was all exchanged to potassium chloride), or by stimulation with leukotriene D4 (LTD4) or histamine. After contraction by S1P, EDG-5 antagonist was added. Washing process of a specimen was repeated just in time, after hooked in magnus tube.

EDG-3 = target: T2, EDG-3 (Homo sapiens, UniProt Q99500); test: Antagonistic activity for EDG-3 (S1P-induced intracellular calcium, CHO cells); format: cell-based; details: CHO cells expressing EDG-3, S1P 100 nM
T2 construct: expressed in transfected cells; host or cells: CHO inferred from 'method as in EDG-5'
T2 sequence (Q99500 whole entry): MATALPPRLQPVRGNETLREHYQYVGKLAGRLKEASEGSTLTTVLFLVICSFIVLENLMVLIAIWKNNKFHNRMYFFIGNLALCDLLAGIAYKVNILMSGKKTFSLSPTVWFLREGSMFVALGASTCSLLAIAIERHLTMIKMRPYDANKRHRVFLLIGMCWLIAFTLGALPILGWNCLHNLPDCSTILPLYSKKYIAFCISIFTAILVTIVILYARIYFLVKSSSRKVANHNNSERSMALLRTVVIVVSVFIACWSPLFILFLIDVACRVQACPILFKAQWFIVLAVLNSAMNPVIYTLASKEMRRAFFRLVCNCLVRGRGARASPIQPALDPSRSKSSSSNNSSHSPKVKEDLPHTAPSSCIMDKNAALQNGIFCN

human EDG-1 = target: T3, human EDG-1 (Homo sapiens, UniProt P21453); test: Antagonistic activity for EDG-1 (S1P-induced intracellular calcium, CHO cells); format: cell-based; details: CHO cells expressing human EDG-1, S1P 100 nM
T3 construct: expressed in transfected cells; host or cells: CHO inferred from 'method as in EDG-5'; the EDG-1 sentence says only 'cells'
T3 sequence (P21453 whole entry): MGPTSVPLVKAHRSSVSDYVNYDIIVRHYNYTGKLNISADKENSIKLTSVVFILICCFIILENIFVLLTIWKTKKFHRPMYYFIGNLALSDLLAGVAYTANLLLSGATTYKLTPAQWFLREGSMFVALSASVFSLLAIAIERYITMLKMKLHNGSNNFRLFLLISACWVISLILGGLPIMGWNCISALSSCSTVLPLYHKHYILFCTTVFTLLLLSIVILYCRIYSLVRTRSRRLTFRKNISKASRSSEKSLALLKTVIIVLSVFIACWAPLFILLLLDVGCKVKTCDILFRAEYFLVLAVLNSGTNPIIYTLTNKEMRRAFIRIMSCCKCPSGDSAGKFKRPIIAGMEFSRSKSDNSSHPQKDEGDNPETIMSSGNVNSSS

[4] = system: Normal human airway smooth muscle cells; test: DNA synthesis (BrdU incorporation) of human airway smooth muscle cells induced by S1P; format: cell-based
Method: Normal human airway smooth muscle cells (BMSC; BioWhittaker) were cultured using MEM-A medium (GIBCO) containing 10% FBS (fetal calf serum), gentamicin (50 μg/mL), amphotericin B (50 ng/mL), and human bFGF, human insulin for 24 hours and deoxybromouridine (BrdU) was added.
Normal human airway smooth muscle cells (BMSC; BioWhittaker) were plated in 96 well plate using MEM-α medium containing human insulin at density of 1×10^4 cells/well. After 24 hour incubation, wash 2 times with Hanks solution, and serum-free medium (MEM-α/gentamicin (50 μg/mL), amphotericin B (50 ng/mL)) was added and incubated for 24 hours. S1P was added at the final concentration of 0.03 μM to 10 μM, deoxybromouridine (BrdU) was added at the same time, and incubated for 6 hours, and then the activity of BrdU incorporation was measured. As control, equal volume of physiological salt solution, which is vehicle of S1P, was added.
Cells were treated with BrdU, and culture supernatant was discarded. 150 μL of Cell fixation·DNA denaturation buffer was added to each well and incubated for 30 minutes. Cell fixation·DNA denaturation buffer was removed and blocking buffer (150 μL) was added. […] After 15 minutes, 25 μL of 2N sulfuric acid was added and absorbance at 450 nm was measured. […]

anesthetized guinea pig [5] = test: Airway resistance of guinea pig after intravenous administration; format: in vivo; details: injected intravenously
Method: Male guinea pigs (Standard Hartley, 5 to 7 weeks-old, 300 to 500 g body weight in use) were anesthetized by pentobarbital (50 mg/kg intraabdominal dosage), and fixed at dorsal position. Then, trachea and jugular were cannulated. S1P was injected intravenously, and airway resistance was measured as described in Example 1.

anesthetized guinea pig [6] = test: Airway resistance of anesthetized guinea pig after inhalation (modified Konzett and Rossler method); format: in vivo; details: for increase of airway resistance: inhalation for five minutes, 0.01 to 1 mg/mL, S1P effect at 0.1 to 1 mg/mL
Method: (§1) The measurement of guinea pig airway resistance was carried out by the modified Konzett and Rossler method (Naunyn-Schmied. Arch. Exp. Path. Pharmak. 195, 71- ). Male Hartley guinea pigs (5 to 7 weeks-old, 300 to 500 g body weight in use) were anesthetized by pentobarbital (50 mg/kg intraabdominal dosage), and fixed at dorsal position. Then, trachea and jugular were cannulated. Airway was managed by a respirator (5 mL/stroke, 60 strokes/min) and air road was diverged with a T-tube and connected to broncho-spasm-transducer and airway resistance was measured. To guinea pigs, gallamine (1 mg/kg, i.v.) was administered and immobilized. In this connection, acetylcholine was administered (30 μg/kg, i.v.) before inhalation of a compound in order to ascertain that that there was no considerable difference in sensitivity of transient airway constriction between individual animals, and then, animals which have coordinative sensitivity were used. S1P (Alexis) was vaporized and inhaled with supersonic wave type nebulizer (Omron NE U-07) for five minutes (Jpn. J. Pharm. 50, 445-466 (1989)). Complete obstruction (total area) was calculated as area as follows; deduct the value of airway resistance at startup of S1P inhalation from the value of airway resistance that is obtained at the time of clamping the tube of tracheal cannula side, and obtained value is multiplied by 10 minutes (5 minutes for inhalation and 5 minutes for post-inhalation). […] S1P (0.01 to 1 mg/mL) was inhaled to anesthetized guinea pig and airway resistance was measured. The reference example was carried out using 10% meylon and sphingosine (Matreya, 0.01 to 1 mg/mL) with method described in example 1.

anesthetized guinea pig [7] = test: Effect of pre-treatment on increase of airway resistance induced by S1P; format: in vivo; details: pretreatment 100 μg/mL, i.v.
Method: as §1, with “S1P (Alexis) was vaporized and inhaled with supersonic wave type nebulizer (Omron NE U-07) for five minutes (Jpn. J. Pharm. 50, 445-466 (1989)).” left out, “The reference example was carried out using 10% meylon and sphingosine (Matreya, 0.01 to 1 mg/mL) with method described in example 1.” left out

Compound: Cc1nn(C)c2nc(NNC(=O)Nc3c(Cl)cncc3Cl)cc(C(C)C)c12 [Compound 1, N-(1H-1,3-dimethyl-4-isopropylpyrazolo[3,4-b]pyridine-6-yl)amino-N′-(3,5-dichloropyridine-4-yl)urea]
- inhibition of increase of airway resistance induced by S1P (anesthetized guinea pig [1]): inhibited
- IC50 (human EDG-5): 0.01 µM
- LDH activity in medium [2]: did not enhancement LDH activity in medium
- inhibition of constriction induced by S1P ([3]; added after contraction by S1P): inhibited constriction induced by S1P
- IC50 (EDG-3): > 10 µM
- IC50 (human EDG-1): > 10 µM
- antagonism of S1P-induced BrdU incorporation ([4]; compound 0.01 μM to 10 μM, S1P 3 μM, 6 hours): antagonized against S1P

Compound: CCCCCCCCCCCCC/C=C/[C@@H](O)[C@@H](N)COP(=O)(O)O [Compound S1P, (2S, 3R, 4E)-2-amino-3-hydroxyoctadeca-4-enyl-1 phosphate]
- increase of airway resistance (anesthetized guinea pig [5]): Increase of airway resistance was observed
- increase of airway resistance compared with histamine (anesthetized guinea pig [5]): slight compared with that of histamine
- contraction of guinea pig trachea ([3]; S1P 10 μmol/L): very slow contraction
- rate of contraction relative to other constricting drug (LTD4, histamine etc.) ([3]; S1P 10 μmol/L): 3 to 5 fold slower
- time to plateau of contraction ([3]; S1P 10 μmol/L): 30 to 60 min
- increasing effect on airway resistance compared with inhalation of histamine (anesthetized guinea pig [6]; inhalation 0.01 to 1 mg/mL, converted to number of moles): at the same level
- increase of airway resistance (anesthetized guinea pig [6]): strong increase of airway resistance was observed
- DNA synthesis of human airway smooth muscle cells ([4]; S1P 0.03 μM to 10 μM, BrdU 6 hours): induces DNA synthesis

Compound: NCCc1c[nH]cn1 [histamine]
- increase of airway resistance (anesthetized guinea pig [5]): increase
- increase of airway resistance (anesthetized guinea pig [6]): increase of airway resistance

Compound: CC(C)(C)NCC(O)c1ccc(O)c(CO)c1 (stereo not shown) [salbutamol]
- inhibition of increase of airway resistance induced by S1P (anesthetized guinea pig [7]): inhibited only partially

Compound: CCCCCCCCCCCCC/C=C/[C@@H](O)[C@@H](N)CO [sphingosine]
- increase of airway resistance (anesthetized guinea pig [6]): increase of airway resistance was not observed
